Key:
Acetylcholinesterase = Acetylcholinesterase (Homo sapiens, UniProt P22303); assay: Inhibition of acetylcholinesterase (unknown origin) using acetylthiocholine iodide as substrate incubated for 10 mins followed by substrate addition measured after 20 mins by UV-Vis spectrophotometric analysis
Cholinesterase = Cholinesterase (Homo sapiens, UniProt P06276); assay: Inhibition of butyrylcholinesterase (unknown origin) using butyrylthiocholine chloride as substrate incubated for 10 mins followed by substrate addition measured after 20 mins by UV-Vis spectrophotometric analysis
Cholinesterase, sequence (P06276 whole entry): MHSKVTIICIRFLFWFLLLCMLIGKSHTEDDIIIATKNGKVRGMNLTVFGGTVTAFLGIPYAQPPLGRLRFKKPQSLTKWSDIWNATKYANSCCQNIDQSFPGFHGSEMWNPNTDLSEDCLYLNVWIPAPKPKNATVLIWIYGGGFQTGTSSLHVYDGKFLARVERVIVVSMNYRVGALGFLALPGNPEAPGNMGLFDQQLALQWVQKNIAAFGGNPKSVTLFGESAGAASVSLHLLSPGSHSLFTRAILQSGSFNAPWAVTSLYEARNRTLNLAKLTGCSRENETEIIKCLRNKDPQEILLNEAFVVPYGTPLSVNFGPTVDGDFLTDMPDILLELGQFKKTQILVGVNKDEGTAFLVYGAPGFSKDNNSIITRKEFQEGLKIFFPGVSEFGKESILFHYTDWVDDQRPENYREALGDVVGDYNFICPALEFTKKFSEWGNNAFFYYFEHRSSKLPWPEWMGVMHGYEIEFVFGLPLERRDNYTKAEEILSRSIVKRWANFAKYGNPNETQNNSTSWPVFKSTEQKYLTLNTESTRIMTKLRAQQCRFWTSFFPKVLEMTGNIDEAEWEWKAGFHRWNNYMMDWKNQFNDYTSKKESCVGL

Acetylcholinesterase, sequence (P22303 whole entry): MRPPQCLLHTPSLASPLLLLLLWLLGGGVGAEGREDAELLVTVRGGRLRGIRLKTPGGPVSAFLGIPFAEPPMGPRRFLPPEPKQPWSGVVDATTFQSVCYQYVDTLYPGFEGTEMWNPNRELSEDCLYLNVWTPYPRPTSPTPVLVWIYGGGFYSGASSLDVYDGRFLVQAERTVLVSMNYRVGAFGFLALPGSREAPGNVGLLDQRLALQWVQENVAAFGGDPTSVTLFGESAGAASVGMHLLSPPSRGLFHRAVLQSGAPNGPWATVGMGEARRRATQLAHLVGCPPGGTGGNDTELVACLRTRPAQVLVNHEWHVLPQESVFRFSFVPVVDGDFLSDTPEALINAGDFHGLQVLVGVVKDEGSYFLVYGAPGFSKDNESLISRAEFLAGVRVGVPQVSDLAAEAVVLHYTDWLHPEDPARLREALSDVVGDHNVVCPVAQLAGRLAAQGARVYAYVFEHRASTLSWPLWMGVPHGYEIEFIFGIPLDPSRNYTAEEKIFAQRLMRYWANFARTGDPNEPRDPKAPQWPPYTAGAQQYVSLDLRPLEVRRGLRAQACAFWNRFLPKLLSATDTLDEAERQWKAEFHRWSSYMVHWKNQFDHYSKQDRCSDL

| SMILES | IC50 (Acetylcholinesterase) [µM] | IC50 (Cholinesterase) [µM] |
| --- | --- | --- |
| COc1ccc(/C=C2\Oc3ccccc3C2=O)cc1 [4'-METHOXY-AURONE] | 1.26 |  |
| CC(C)Cc1ccc(/C=C2\Oc3ccccc3C2=O)cc1 | 0.98 | 1.02 |
| S=C1/C(=C/c2ccccc2)Oc2ccccc21 | 6.39 |  |
| Fc1ccc(/C=C2\Oc3ccccc3C2=S)cc1 |  | 5.27 |

From ChEMBL document CHEMBL3868598, “Synthesis, structure-activity relationship and molecular docking of 3-oxoaurones and 3-thioaurones as acetylcholinesterase and butyrylcholinesterase inhibitors” (Bioorg Med Chem, 2017)
